From US7341721B2 (The Board of Trustees of the University of Arkansas, priority 2002, dated 2008)

How the values were obtained:
[1] = test system: myeloma cell lines; conditions: RPMI-8226 and U266; cited from earlier work
[2] = test system: myeloma cell lines; assay: Apoptosis assay (Annexin V/PI staining, TUNEL), myeloma cell lines; format: cell-based, human; conditions: for protection from β2m-induced apoptosis / spontaneous apoptosis of myeloma cells: IL-6 20 ng/ml or IGF-I 50 ng/ml, ARK-RS and RPMI-8226; for protection from B2 anti-β2m antibody-induced apoptosis: cytokines added to myeloma cells
Protocol: (§1) The fraction of apoptotic cells was determined by staining cells with Annexin V-fluorescein isothiocyanate (FITC) (Immunotech) and propidium iodide (PI) (Sigma) (Vermes, I., et al., J. Immunol. Methods, 184:39-51, 1995). […] 5 μl of Annexin V-FITC (BD PharMingen, San Diego, Calif.) were added and incubated for 30 minutes. After washing and re-suspension of the cells in the binding buffer, 5 μl of PI were added, and the cells were ready for analysis. Percentages of apoptotic cells are the sum of PI^−/Annexin V^+ (newly apoptotic) and PI^+/Annexin V^+ (already apoptotic) cell populations (Vermes, I., et al., J. Immunol. Methods, 184:39-51, 1995).
A flow cytometry-based cell death detection kit (APO-BRDU) was purchased from BD PharMingen, and experiments were performed according to the manufacturer's protocol.

[3] = test system: Jurkat cells; assay: Apoptosis in Jurkat cells; format: cell-based; conditions: Z-VAD-FMK 100 μM; antibody 100 ng/ml, 18-hour culture
Protocol: as §1
A pan-caspase inhibitor, z-Val-Ala-Asp-fluoromethyl ketone (Z-VAD-FMK) or caspase I inhibitor V, was purchased from Calbiochem-Novabiochem. This peptide was dissolved in dimethylsulfoxide (DMSO, Sigma) and added to cell suspensions at a final concentration of 100 μM (final DMSO concentration of 0.25%).
When the pan-caspase inhibitor Z-VAD-FMK was added to the culture, activation and processing of caspase-3 (data not shown), cleavage of PARP (FIG. 5B), and apoptosis (FIG. 5C) were inhibited.

[4] = test system: caspase-3 and PARP; assay: Western blot of caspase-3 activation and PARP cleavage in myeloma cells; format: cell-based, human; conditions: Z-VAD-FMK 100 μM; ARK-RS and RPMI-8226
Protocol: Cells were cultured with or without 40 μg/ml β2m for 48 hours, harvested, washed, and lysed with lysis buffer (50 mM Tris, pH 7.5, 140 mM NaCl, 5 mM EDTA, 5 mM NaN3, 1% Triton-X-100, 1% NP-40, 1× protease inhibitor cocktail). […] The membrane was stripped and reprobed with anti-β-actin antibody (Santa Cruz Biotechnology) to ensure equivalent protein loading. For detection of caspase-3 activation and cleavage of poly(ADP-ribose) polymerase (PARP), the membranes were immunoblotted with anti-caspase-3 antibody (Santa Cruz Biotechnology) or anti-PARP antibody (BD PharMingen). Secondary antibodies conjugated to horseradish peroxidase were used for detection, followed by enhanced chemiluminescence (Bio-Rad Laboratories, Hercules, Calif.) and autoradiography.

In the case of `N[C@@H](Cc1ccc(N(CCCl)CCCl)cc1)C(=O)O` [melphalan], the “sensitivity of myeloma cell lines to melphalan” value [1] is given as “sensitive”.
With “IGF-I: recombinant human IGF-I (R&D Systems), growth and survival factor for myeloma cells” the “protection from β2m-induced apoptosis” value [2] was “only IL-6 protected myeloma cells”, the “spontaneous apoptosis of myeloma cells” value [2] was “reduced the percentage of cells undergoing spontaneous apoptosis” and the “protection from B2 anti-β2m antibody-induced apoptosis” value [2] was “do not protect myeloma cells”.
For “IL-6: recombinant human IL-6 (R&D Systems), growth and survival factor for myeloma cells”, the “protection from β2m-induced apoptosis” value [2] was “protected myeloma cells from β2m-induced apoptosis”, the “spontaneous apoptosis of myeloma cells” value [2] was “reduced the percentage of cells undergoing spontaneous apoptosis” and the “protection from B2 anti-β2m antibody-induced apoptosis” value [2] was “do not protect myeloma cells”.
In the case of “z-Val-Ala-Asp-fluoromethyl ketone [Z-VAD-FMK]”, the “effect on anti-Fas antibody 7C11-induced apoptosis” value [3] is reported as “abrogated apoptosis”, the “effect on β2m-induced apoptosis” value ([2]; Z-VAD-FMK 100 μM, RPMI-8226, β2m 40 μg/ml, 48-hour culture) is reported as “inhibited” and the “effect on β2m-induced caspase-3 activation and PARP cleavage” value [4] is reported as “inhibited”.
